Test results as given in patent US9040534B2, “[1,2,4]triazolo[4,3-a]pyrazines as P2X7 modulators” (Janssen Pharmaceutica NV, priority 2013, dated 2015).

Experiments:
P2X7 [1] = target: T1, P2X7 (Homo sapiens (Human), UniProt Q99572); assay: P2X7 antagonism in human PBMCs (LPS + Bz-ATP induced IL-1β release, ELISA); type: cell-based; conditions: 0.5 mM Bz-ATP; for remaining activity at 10 µM: P2X7, 10 μM compound, human PBMC, read-out: PBMC 10 μM (% control); for PBMC 1 μM (% control): 1 μM compound
Description: Human blood was collected using a blood donor program. PBMCs were isolated from blood using a Ficoll density gradient technique. Briefly, blood was laid on Ficoll solution and centrifuged at RT for 20 minutes at 2000 rpm. The buffy layer (between red blood cells and plasma) was carefully collected by aspiration, washed with PBS and centrifuged again at 1500 rpm for 15 minutes. The resulting cell pellet was washed and plated on 96 well-plates for experiments. For the Mouse/Human Whole Blood experiments, 150 μl of either mouse or human blood was platted on 96 well-plates. Lipopolysaccharide (LPS) (30 ng/ml) was added to each well and incubated for 1 hour. Test compounds were then added and incubated for 30 minutes. The P2X7 agonist, 2′(3′)-O-(4-benzoylbenzoyl) adenosine 5′-triphosphate (Bz-ATP) was then added at a final concentration of 0.5 mM (PBMC) or 1 mM (blood). Cells were incubated for an additional 1.5 hours. At that point, supernatant was collected and stored for IL-1β assay using manufacturer's protocol for enzyme-linked immunosorbent assay (ELISA). Data was expressed as percent control, where control is defined as the difference in IL-1β release in LPS+Bz-ATP samples and LPS only samples. Data was plotted as response (% control) versus concentration to generate IC50 values. […] In Table 2, when the data cell has been left blank, it is intended to mean that the compound was not tested in that assay.

P2X7 [2] = target: T1, P2X7; assay: Radioligand binding, human P2X7-1321N1 cell membranes, tritiated A-804598 tracer; conditions: 1 hour at 4° C.
Description: (B) Radioligand binding: human or rat P2X7-1321N1 cells were collected and frozen @ −80° C. On the day of the experiment, cell membrane preparations were made according to standard published methods. […] The compound can be prepared as described in the literature. […] The assay was terminated by filtration (GF/B filters pre-soaked with 0.3% PEI) and washed with washing buffer (Tris-HCl 50 mM). The IC50 generated in the binding assay was corrected for tracer concentration and affinity of the tracer to derive at the affinity (Ki) of the test compounds.

P2X7 [3] = target: T1, P2X7; assay: Ca2+ flux (FLIPR) in 1321N1 cells expressing recombinant human P2X7 channel; type: cell-based; conditions: 250 μM BzATP
Description: (§1) (A) Ca^2+ Flux: 1321N1 cells expressing the recombinant human, rat or mouse P2X7 channel was cultured in HyQ DME/(HyClone/Dulbecco's Modified Eagle Medium) high glucose supplemented with 10% Fetal Bovine Serum (FBS) and appropriate selection marker. Cells were seeded at a density of 25000 cells/well (96-well clear bottom black walled plates) in 100 μl volume/well. On the day of the experiment, cell plates were washed with assay buffer, containing (in mM): 130 NaCl, 2 KCl, 1 CaCl2, 1 MgCl2, 10 HEPES, 5 glucose; pH 7.40 and 300 mOs. After the wash, cells were loaded with the Calcium-4 dye (Molecular Device) and incubated in the dark for 60 minutes. Test compounds were prepared at 250× the test concentration in neat DMSO. Intermediate 96-well compound plates were prepared by transferring 1.2 μL of the compound into 300 μL of assay buffer. A further 3× dilution occurred when transferring 50 μL/well of the compound plate to 100 μL/well in the cell plate. Cells were incubated with test compounds and dye for 30 minutes. […] The fluorescence change was measured 180 seconds after adding the agonist.

rat P2X7 [4] = target: T2, rat P2X7 (Rattus norvegicus (Rat), UniProt Q64663); assay: Radioligand binding, rat P2X7-1321N1 cell membranes, tritiated A-804598 tracer; conditions: 1 hour at 4° C.
Description: (B) Radioligand binding: human or rat P2X7-1321N1 cells were collected and frozen @ −80° C. On the day of the experiment, cell membrane preparations were made according to standard published methods. The total assay volume was 100 μl:10 μl compound (10×)+(b) 40 μl tracer (2.5×)+50 μl membrane (2×). The tracer used for the assay was tritiated A-804598. The compound can be prepared as described in the literature. (Donnelly-Roberts, D. Neuropharmacology 2009, 56 (1), 223-229.) Compounds, tracer and membranes were incubated for 1 hour @ 4° C. The assay was terminated by filtration (GF/B filters pre-soaked with 0.3% PEI) and washed with washing buffer (Tris-HCl 50 mM). The IC50 generated in the binding assay was corrected for tracer concentration and affinity of the tracer to derive at the affinity (Ki) of the test compounds.

rat P2X7 [5] = target: T2, rat P2X7; assay: Ca2+ flux (FLIPR) in 1321N1 cells expressing recombinant rat P2X7 channel; type: cell-based; conditions: 250 μM BzATP
Description: as §1

T2 sequence (Q64663 whole entry): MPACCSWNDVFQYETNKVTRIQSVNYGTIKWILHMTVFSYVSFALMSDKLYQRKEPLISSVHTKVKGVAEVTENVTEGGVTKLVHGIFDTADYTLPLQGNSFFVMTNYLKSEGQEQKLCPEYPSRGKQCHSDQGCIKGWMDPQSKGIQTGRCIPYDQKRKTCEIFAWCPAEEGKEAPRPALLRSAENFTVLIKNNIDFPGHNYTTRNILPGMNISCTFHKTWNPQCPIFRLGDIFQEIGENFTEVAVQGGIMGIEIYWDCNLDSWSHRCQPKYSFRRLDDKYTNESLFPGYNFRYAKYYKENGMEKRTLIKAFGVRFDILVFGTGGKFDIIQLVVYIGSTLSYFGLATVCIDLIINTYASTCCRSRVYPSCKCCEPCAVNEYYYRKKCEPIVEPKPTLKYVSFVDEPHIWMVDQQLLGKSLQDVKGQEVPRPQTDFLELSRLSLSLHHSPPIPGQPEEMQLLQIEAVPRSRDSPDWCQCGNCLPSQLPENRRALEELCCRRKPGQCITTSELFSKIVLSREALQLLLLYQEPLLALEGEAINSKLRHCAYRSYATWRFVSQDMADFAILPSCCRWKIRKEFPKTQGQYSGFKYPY
T1 sequence (Q99572 whole entry): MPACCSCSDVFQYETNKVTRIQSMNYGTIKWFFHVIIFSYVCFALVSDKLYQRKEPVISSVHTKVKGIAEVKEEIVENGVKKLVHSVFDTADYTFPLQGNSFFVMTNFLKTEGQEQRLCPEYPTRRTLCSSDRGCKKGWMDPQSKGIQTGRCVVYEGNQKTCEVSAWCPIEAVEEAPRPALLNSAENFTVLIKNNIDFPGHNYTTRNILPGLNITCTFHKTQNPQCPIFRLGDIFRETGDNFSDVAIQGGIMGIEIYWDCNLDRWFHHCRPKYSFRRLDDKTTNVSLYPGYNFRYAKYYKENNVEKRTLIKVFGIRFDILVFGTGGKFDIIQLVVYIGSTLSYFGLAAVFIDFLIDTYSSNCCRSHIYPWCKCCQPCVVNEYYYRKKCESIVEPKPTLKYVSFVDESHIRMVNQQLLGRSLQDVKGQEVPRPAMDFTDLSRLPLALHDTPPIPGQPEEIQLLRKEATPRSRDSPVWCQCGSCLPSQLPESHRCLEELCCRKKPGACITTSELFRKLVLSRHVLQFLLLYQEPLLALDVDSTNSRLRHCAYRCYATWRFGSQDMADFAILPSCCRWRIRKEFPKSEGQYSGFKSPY

## O=C1c2nnc(-c3cnccn3)n2C[C@H](C2CC2)N1Cc1cccc(C(F)(F)F)c1Cl (single isomer, unassigned) [Example 63]
P2X7 [1]
  remaining activity at 10 µM: 27.3%

## CC[C@H]1Cn2c(nnc2-c2ccc(F)cn2)C(=O)N1Cc1cccc(C(F)(F)F)c1Cl [Example 76, (6S)-7-[2-Chloro-3-(trifluoromethyl)benzyl]-6-ethyl-3-(5-fluoropyridin-2-yl)-6,7-dihydro[1,2,4]triazolo[4,3-a]pyrazin-8(5H)-one]
P2X7 [2]
  Ki: 2.5 nM
P2X7 [3]
  IC50: < 1 nM
Rat P2X7 [4]
  Ki: 1.6 nM
Rat P2X7 [5]
  IC50: 158 nM

## O=C1c2nnc(-c3cnccn3)n2CCN1Cc1cccc(Cl)c1Cl [Example 2, 7-(2,3-Dichlorobenzyl)-3-pyrazin-2-yl-6,7-dihydro[1,2,4]triazolo[4,3-a]pyrazin-8(5H)-one]
P2X7 [1]
  PBMC 1 μM (% control): 50.6 % control

## O=C1c2nnc(-c3cnccn3)n2C[C@@H](C2CC2)N1Cc1cccc(C(F)(F)F)c1Cl (single isomer, unassigned) [Example 62]
P2X7 [1]
  remaining activity at 10 µM: 14.1%

## C[C@H]1Cn2c(nnc2C2CCCN(C(=O)OC(C)(C)C)C2)C(=O)N1Cc1cccc(C(F)(F)F)c1Cl (stereo partly drawn) [Example 59, (6S)-tert-Butyl3-{7-[2-chloro-3-(trifluoromethyl)benzyl]-6-methyl-8-oxo-5,6,7,8-tetrahydro[1,2,4]triazolo[4,3-a]pyrazin-3-yl}piperidine-1-carboxylate]
P2X7 [1]
  remaining activity at 10 µM: 10.9%
Rat P2X7 [5]
  IC50: 1140 nM

## CC[C@H]1Cn2c(nnc2-c2cc[nH]n2)C(=O)N1Cc1cccc(C(F)(F)F)c1Cl [Example 74, (6S)-7-[2-Chloro-3-(trifluoromethyl)benzyl]-6-ethyl-3-(1H-pyrazol-3-yl)-6,7-dihydro[1,2,4]triazolo[4,3-a]pyrazin-8(5H)-one]
P2X7 [2]
  Ki: 10 nM
P2X7 [3]
  IC50: 1.5 nM
Rat P2X7 [5]
  IC50: 5.1 nM

## C[C@H]1Cn2c(nnc2-c2cncc(F)c2)C(=O)N1Cc1cccc(C(F)(F)F)c1Cl [Example 45, (6S)-7-[2-Chloro-3-(trifluoromethyl)benzyl]-3-(5-fluoropyridin-3-yl)-6-methyl-6,7-dihydro[1,2,4]triazolo[4,3-a]pyrazin-8(5H)-one]
P2X7 [2]
  Ki: 6.3 nM
P2X7 [3]
  IC50: 100 nM
Rat P2X7 [4]
  Ki: 5 nM
Rat P2X7 [5]
  IC50: 12600 nM

## C[C@H]1Cn2c(nnc2-c2cccnc2)C(=O)N1Cc1cccc(C(F)(F)F)c1Cl [Example 29, (6S)-7-[2-Chloro-3-(trifluoromethyl)benzyl]-6-methyl-3-pyridin-3-yl-6,7-dihydro[1,2,4]triazolo[4,3-a]pyrazin-8(5H)-one]
P2X7 [2]
  Ki: 4 nM
P2X7 [3]
  IC50: 1 nM
Rat P2X7 [4]
  Ki: 5.6 nM
Rat P2X7 [5]
  IC50: 122 nM

## Cc1cccc(C)c1CN1C(=O)c2nnc(-c3cnccn3)n2C[C@@H]1C [Example 87, (6S)-7-(2,6-Dimethylbenzyl)-6-methyl-3-pyrazin-2-yl-6,7-dihydro[1,2,4]triazolo[4,3-a]pyrazin-8(5H)-one]
P2X7 [2]
  Ki: 31.6 nM
P2X7 [3]
  IC50: 42.5 nM
Rat P2X7 [5]
  IC50: 1560 nM

## Cc1cc(-c2nnc3n2C[C@H](C)N(Cc2cccc(C(F)(F)F)c2Cl)C3=O)n[nH]1 [Example 26, (6S)-7-[2-Chloro-3-(trifluoromethyl)benzyl]-6-methyl-3-(5-methyl-1H-pyrazol-3-yl)-6,7-dihydro[1,2,4]triazolo[4,3-a]pyrazin-8(5H)-one]
P2X7 [2]
  Ki: 3.2 nM
P2X7 [3]
  IC50: 1.2 nM
Rat P2X7 [4]
  Ki: 1 nM
Rat P2X7 [5]
  IC50: 375 nM

## O=C1c2nnc(-c3cnccn3)n2CCN1Cc1cccc(C(F)(F)F)c1Cl [Example 3, 7-[2-Chloro-3-(trifluoromethyl)benzyl]-3-pyrazin-2-yl-6,7-dihydro[1,2,4]triazolo[4,3-a]pyrazin-8(5H)-one]
P2X7 [2]
  Ki: 6.3 nM
P2X7 [1]
  PBMC 1 μM (% control): −0.6 % control
P2X7 [3]
  IC50: 44.2 nM
Rat P2X7 [4]
  Ki: 12.6 nM
Rat P2X7 [5]
  IC50: 9310 nM

## C[C@H]1Cn2c(nnc2-c2ccccn2)C(=O)N1Cc1cccc(C(F)(F)F)c1Cl [Example 18, (6S)-7-[2-Chloro-3-(trifluoromethyl)benzyl]-6-methyl-3-pyridin-2-yl-6,7-dihydro[1,2,4]triazolo[4,3-a]pyrazin-8(5H)-one]
P2X7 [2]
  Ki: 5 nM
P2X7 [3]
  IC50: < 1 nM
Rat P2X7 [4]
  Ki: 2 nM
Rat P2X7 [5]
  IC50: 316 nM

## C[C@H]1Cn2c(nnc2-c2ccc(F)cn2)C(=O)N1Cc1cccc(C(F)(F)F)c1Cl [Example 30, (6S)-7-[2-Chloro-3-(trifluoromethyl)benzyl]-3-(5-fluoropyridin-2-yl)-6-methyl-6,7-dihydro[1,2,4]triazolo[4,3-a]pyrazin-8(5H)-one]
P2X7 [1]
  remaining activity at 10 µM: 3.3%
P2X7 [3]
  IC50: 0.9 nM

## C[C@H]1Cn2c(nnc2-c2ncc(Br)cn2)C(=O)N1Cc1cccc(C(F)(F)F)c1Cl [Example 42, (6S)-3-(5-Bromopyrimidin-2-yl)-7-[2-chloro-3-(trifluoromethyl)benzyl]-6-methyl-6,7-dihydro[1,2,4]triazolo[4,3-a]pyrazin-8(5H)-one]
P2X7 [2]
  Ki: 7.9 nM
P2X7 [3]
  IC50: 17.5 nM
Rat P2X7 [5]
  IC50: > 10000 nM

## C[C@H]1Cn2c(nnc2-c2ncco2)C(=O)N1Cc1cccc(C(F)(F)F)c1Cl [Example 20, (6S)-7-[2-Chloro-3-(trifluoromethyl)benzyl]-6-methyl-3-(1,3-oxazol-2-yl)-6,7-dihydro[1,2,4]triazolo[4,3-a]pyrazin-8(5H)-one]
P2X7 [2]
  Ki: 4 nM
P2X7 [3]
  IC50: 3.2 nM
Rat P2X7 [4]
  Ki: 5 nM
Rat P2X7 [5]
  IC50: 2000 nM

## O=C1c2nnc(-c3ncc(F)cn3)n2CC(C2CC2)N1Cc1cccc(C(F)(F)F)c1Cl (racemic) [Example 70, (±)-7-[2-Chloro-3-(trifluoromethyl)benzyl]-6-cyclopropyl-3-(5-fluoropyrimidin-2-yl)-6,7-dihydro[1,2,4]triazolo[4,3-a]pyrazin-8(5H)-one]
P2X7 [2]
  Ki: 7.9 nM
P2X7 [3]
  IC50: 7.9 nM
Rat P2X7 [5]
  IC50: 794 nM

## C[C@H]1Cn2c(nnc2-c2nccs2)C(=O)N1Cc1cccc(C(F)(F)F)c1Cl [Example 31, (6S)-7-[2-Chloro-3-(trifluoromethyl)benzyl]-6-methyl-3-(1,3-thiazol-2-yl)-6,7-dihydro[1,2,4]triazolo[4,3-a]pyrazin-8(5H)-one]
P2X7 [2]
  Ki: 4 nM
P2X7 [3]
  IC50: 1.2 nM
Rat P2X7 [5]
  IC50: 135 nM

## C[C@@H]1Cn2c(nnc2-c2cnccn2)C(=O)N1Cc1cccc(Cl)c1Cl [Example 12, (6R)-7-(2,3-Dichlorobenzyl)-6-methyl-3-pyrazin-2-yl-6,7-dihydro[1,2,4]triazolo[4,3-a]pyrazin-8(5H)-one]
P2X7 [1]
  remaining activity at 10 µM: 20.6%

## Cc1nc(C)c(-c2nnc3n2C[C@H](C)N(Cc2cccc(C(F)(F)F)c2Cl)C3=O)s1 [Example 39, (6S)-7-[2-Chloro-3-(trifluoromethyl)benzyl]-3-(2,4-dimethyl-1,3-thiazol-5-yl)-6-methyl-6,7-dihydro[1,2,4]triazolo[4,3-a]pyrazin-8(5H)-one]
P2X7 [2]
  Ki: 27.5 nM
P2X7 [3]
  IC50: 22.4 nM
Rat P2X7 [5]
  IC50: 8670 nM

## C[C@H]1Cn2c(nnc2-c2ccn(C)n2)C(=O)N1Cc1cccc(C(F)(F)F)c1Cl [Example 23, (6S)-7-[2-Chloro-3-(trifluoromethyl)benzyl]-6-methyl-3-(1-methyl-1H-pyrazol-3-yl)-6,7-dihydro[1,2,4]triazolo[4,3-a]pyrazin-8(5H)-one]
P2X7 [2]
  Ki: 3.2 nM
P2X7 [3]
  IC50: 2.5 nM
Rat P2X7 [4]
  Ki: 3.2 nM
Rat P2X7 [5]
  IC50: 1220 nM
